Patent publication US20240174714A1, “TREATMENT OF SKIN DISORDERS” (priority 2021, published 2024)
Square brackets hold non-standard residues; d marks the D form. Peptide text beside a SMILES is read from it. * marks the point of attachment. NH(1-CH2NMe2-cBu) = CN(C)CC1(N*)CCC1; Benzoyl(4-F) = O=C(c1ccc(F)cc1)*; hCha = N[C@@H](CCC1CCCCC1)C(=O)O; Aib = CC(C)(N)C(=O)O; βAla = NCCC(=O)O

How the values were obtained:
[1] = test system: Leishmania mexicana (MNYC/BZ/62/m379); assay: In vivo model of cutaneous leishmaniasis, rump back model in C67BLC/6 mice; settings: 20 μl 0.1% w/v in DMSO topically bid for 14 days
Source text: Mice. C67BLC/6 female mice were purchased from Envigo (Harlan laboratories) Indianapolis, IN, USA. 129SVE female mice were purchased from Taconic Farms, Cambridge City, IN, USA. All experimental mice were maintained at an OSU-ULAR facility in compliance with OSUIACUC.
Parasites and infection. L. mexicana (MNYC/BZ/62/m379) parasites were obtained and maintained as described previously. Promastigotes were maintained, passaged, and subsequently injected into experimental mice (5×10^6 parasites) subcutaneously into their shaven rumps. C67BLC/6 mice were infected with L. mexicana parasites for 6 weeks after which they developed lesions on their back rumps. Mice with similar lesion sizes were selected and randomized into control and treatment groups. From the beginning of treatment animals were housed individually.
Treatment. Treatment group received 20 μl of ZHAW6027 0.1% weight by volume in DMSO, twice a day (bid) for 14 days. […]
Topical drug treatments and lesion measurements. Lesion sizes were measured by using a small animal caliper twice weekly over the 14-day treatment duration and the area of the lesion was calculated by L×W, where L is the length and W is the width. […]
Quantitation of parasitic load. After 2 weeks of treatment animals were sacrificed, and the parasite load in the lesions was quantified. […] Viability of parasites was determined at 10 days of parasite culture. […]

[2] = test system: Staphylococcus aureus ATCC 29213; assay: MIC broth microdilution, method 1; type: cell-based; settings: CAMHB II, 1 day at 36° C., 6027 acetate
[3] = test system: intracellular Leishmania donovani MHOM-ET-67/L82 amastigotes; assay: In vitro antiprotozoal assay, intracellular amastigotes; type: cell-based; settings: intracellular amastigotes; read-out: L.don.InMac IC50
Method: (§1) The testing of the inventive compounds against Leishmania donovani (strain MHOM/ET/67/L82) was performed in 96 well plates at concentrations in serial dilutions. Tests were done in triplicate.

[4] = test system: S. aureus (USA300 MRSA, BAA-1556); assay: S. aureus dermal infection model in ICR mice, CFU/skin; type: in vivo, Staphylococcus aureus; settings: 25 hours post inoculation; topical BID at 1 and 7 h post infection, 20 μL/mouse; 6027 1% in DMSO, fusidic acid 2%
Method: Inoculum preparation. The testing strain, S. aureus USA300 MRSA (BAA-1556), was obtained from the frozen working stock and thawed at room temperature. A 0.2 mL aliquot was inoculated into 20 mL Brain-Heart Infusion broth (BHI) and then incubated at 35-37° C. with shaking (120 rpm) for 8 h. Bacterial cells in the 20 mL culture were pelleted by centrifugation at 3,500×g for 15 minutes and then re-suspended in 10 mL cold PBS (>8.0×10^9 CFU/mL, OD620 1.8-2.0). The culture was then diluted in PBS to the target inoculum of 1.0×10^7 CFU/mL. The actual bacterial counts were determined by plating dilutions onto nutrient agar (NA) plates followed by 20-24 h incubation and colony counting. The actual CFU counts were 1.04×10^7 CFU/mL.
S. aureus (USA300 MRSA, BAA-1556) dermal infection model. Groups of 5 female ICR mice weighing 24±2 g were used. Animals were anesthetized with etomidate-lipuro emulsion (20 mg/10 mL) at 20 mg/kg by intravenous (IV) injection, and then the fur on the back was removed by an electric shaver, and the epidermal layer was disrupted with an abrasive paper. Mice were inoculated topically (TOP) on the wound area with S. aureus (MRSA, BAA-1556) suspension, 5 μL/mouse. The target inoculation density was 5×10^4 CFU/mouse and the actual inoculum count 5.2×10^4 CFU/mouse. Animals were housed separately after infection. Compound 6027 in DMSO at 1% was administered topically (TOP) twice (BID) at 1 and 7 h post infection. Reference control agent, fusidic acid cream at 20 mg/gram (2%), was administered TOP BID at 1 and 7 h post infection. One infected and untreated group was sacrificed at 1 h after infection for the initial (baseline) bacterial counts. The dose volumes were 20 μL/mouse for all dosing groups.
Animals were sacrificed at 1 or 25 h after inoculation with CO2 asphyxiation. The infected skin samples of the wound infection (around 2 cm 2 areas) were excised and were homogenized in 1 mL PBS (pH 7.4) with a polytron homogenizer. A 0.1 mL aliquot of each homogenate was used for serial 10-fold dilutions and plated onto NA plates for bacterial enumeration. The bacterial counts (CFU/skin) in skin tissues were calculated and the percentage decrease in counts compared to the corresponding vehicle control (placebo) was calculated with the following formula: Decrease (%)=[(CFU/skin of placebo —CFU/skin of treatment)/(CFU/skin of placebo)]×100%.

[5] = test system: axenic Leishmania donovani MHOM-ET-67/L82 amastigotes; assay: In vitro antiprotozoal assay, axenic amastigotes; type: cell-based; settings: axenic amastigotes; read-out: L.don.ax. IC50
Method: as §1

[6] = test system: Staphylococcus aureus NARSA NRS382; assay: microbe, parasite or virus in culture; type: cell-based; settings: NARSA NRS382
[7] = test system: Streptococcus agalactiae ATCC 12386; assay: MIC broth microdilution, method 1; type: cell-based; settings: CAMHB II, 5% LHB, 1 day at 36° C., 6027 acetate
[8] = test system: Clostridium difficile ATCC BAA-1805; settings: RCM, anaerobic, 2 days at 36° C., 6027 acetate
Method: The antibacterial activity of inventive compounds was determined in duplicate in a Minimum Inhibitory Concentration (MIC) assay.
The antibacterial activity of 6027 acetate was measured using the in vitro broth microdilution assay under assay conditions described by the Clinical and Laboratory Standards Institute. […] Pre-formulated DMSO stock solution (26.67 mg/mL) was provided by sponsor. The 26.67 mg/mL stock solution was then diluted in DMSO to prepare a 6.4 mg/mL working stock solution. The 6.4 mg/mL working stock solution was diluted by 2-fold serial titrations in DMSO, for a total of 11 test concentrations. A 4 μl aliquot of each dilution was added to 196 of broth medium seeded with the organism suspension in wells of a 96 well plate (bacterial count: 2 −8×10^5 colony forming units/mL final). The final volume was 200 μl in each well and the final DMSO concentration was 2 percent. Test concentrations were 128 to 0.125 μg/mL.
Following incubation, the plates were visually examined, and wells were scored for growth or complete growth inhibition to define the minimum inhibitory concentration. […] Vehicle-control and Vancomycin or Linezolid, as depicted at Table 8, were used as blank and positive controls, respectively.

[9] = test system: Staphylococcus aureus NARSA NRS127; assay: microbe, parasite or virus in culture; type: cell-based; settings: NARSA NRS127
[10] = test system: Staphylococcus epidermidis ATCC 12228; assay: MIC broth microdilution, method 1; type: cell-based; settings: 6027 acetate
[11] = test system: Staphylococcus aureus NARSA NRS383; assay: microbe, parasite or virus in culture; type: cell-based; settings: NARSA NRS383
[12] = test system: Staphylococcus aureus ATCC BAA-1717; assay: microbe, parasite or virus in culture; type: cell-based; settings: ATCC BAA-1717, Methicillin resistant; CAMHB II, 1 day at 36° C.; 6027 acetate
[13] = test system: Staphylococcus aureus NARSA NRS119; assay: microbe, parasite or virus in culture; type: cell-based; settings: NARSA NRS119

## CC(C)C[C@H](NC(=O)[C@H](CCC1CCCCC1)NC(=O)[C@@H]1CCCN1C(=O)c1ccc(F)cc1)C(=O)NC(C)(C)C(=O)N[C@@H](CC(C)C)C(=O)N[C@@H](CC(C)C)C(=O)NC(C)(C)C(=O)NC(C)(C)C(=O)NCCC(=O)NC1(CN(C)C)CCC1 [Compound 6027, (2S)-2-[(2S)-4-cyclohexyl-2-{[(2S)-1-(4-fluorobenzoyl)pyrrolidin-2-yl]formamido}butanamido]-N-(1-{[(1S)-1-{[(1S)-1-({1-[(1-{[2-({1-[(dimethylamino)methyl]cyclobutyl}carbamoyl)ethyl]carbamoyl}-1-methylethyl)carbamoyl]-1-methylethyl}carbamoyl)-3-methylbutyl]carbamoyl}-3-methylbutyl]carbamoyl}-1-methylethyl)-4-methylpentanamide] ({Benzoyl(4-F)}-P[hCha]L[Aib]LL[Aib][Aib][βAla]-{NH(1-CH2NMe2-cBu)})
[1]; limiting dilution assay, FIG. 2
  reduction of parasite loads in lesions compared to the control: about 3 orders of magnitude
[1]; vs vehicle (DMSO), where lesions increased, FIG. 1
  volume of the induced CL lesions over time: gradually reduced
[2]
  MIC of 6027: 1 µg/mL
[3]
  IC50: 54.2 nM
[4]
  Decrease (%) in CFU/skin vs vehicle control: 71%
  LogCFU/skin after 25 hours (Standard error of the mean − SEM): 6.50 (0.16) LogCFU/skin
[5]
  IC50: 5.7 nM
[6]
  MIC of 6027: 1 µg/mL
[7]
  MIC of 6027: 1 µg/mL
[8]
  MIC of 6027: 0.25 µg/mL
[9]
  MIC of 6027: 2 µg/mL
[10]
  MIC of 6027: 2 µg/mL
[11]
  MIC of 6027: 2 µg/mL
[12]
  MIC of 6027: 1 µg/mL
[13]
  MIC of 6027: 2 µg/mL
